ChEMBL document CHEMBL3430912, “GSK Tres Cantos Anti-Kinetoplastid Screening (TCAKS) Data”
pIC50: −log10 of the molar value.

Assays:
[1] = molecular target: Sterol 14-alpha demethylase (Trypanosoma cruzi (strain CL Brener), UniProt Q7Z1V1); assay: GSK_TCAKS: pIC50 CYP51 from Trypanosoma cruzi.; type: functional
[2] = tested on: Trypanosoma brucei brucei; assay: GSK_TCAKS: pIC50 Trypanosoma brucei viability assay using fluorescence intensity. Assay plates (1536-well) were prepared by dispensing 25nL of compound solution per well using an Echo acoustic dispenser (Labcyte).; type: functional, organism-based; settings: Lister 427, 2 h
Trypanosoma cruzi [3] = assay: (§1) GSK_TCAKS: pIC50 H2C9 Imaging: H9c2 Host Cardiomyocytes. […] Cells were then washed once with PBS before infection. T. cruzi trypomastigotes, collected at days 5 to 8 after infection from LLC-MK2 parasite infected cultures, were allowed to swim out for 4h at 37C from a centrifuged pellet (2,500 rpm/10 min/room temperature). Trypomastigotes were then collected and counted in a CASY Cell Counter. Trypomastigotes, in supplemented DMEM, were added to H9c2 cultures in a multiplicity of infection of 1 and incubated for 18 h. Cells were washed once with PBS before incubation of the infected H9c2 monolayer with trypsin (Life-Technologies) to detach cells from the flask. Cells were counted in a CASY Cell Counter using a 150 um capillary and their density set at 5 * 10^4 cells per mL in supplemented assay DMEM. Infected H9c2 were dispensed into 384-well poly-lysine coated assay plates at 50uL per well using a Multidrop Combi dispenser. After seeding them, the plates were incubated at 37C, 5% CO2 for 72h. Cultures were then fixed and stained by addition of 50 uL of a solution containing 8% formaldehyde and 4 uM DRAQ5 DNA dye (BioStatus, UK) per well. […] Five images were collected per well for reliable statistical analysis. Automated image analysis was performed with a script developed on Acapella High Content Imaging and Analysis Software (PerkinElmer). Output: Number of H9c2 Host Cardiomyocytes nuclei to determine drug-related cytotoxicity.; type: functional, organism-based, Rattus norvegicus; settings: H9c2, 4 h
Trypanosoma cruzi [4] = assay: GSK_TCAKS: pIC50 Trypanosoma cruzi viability assay using beta-GAL activity. This assay was run at single shot at 5uM compound concentration per well. The biological reagents consisted of NIH-3T3 host cells and trypomastigotes parasitic cells; both cell types were set to a 3.3 * 10^5 cells/mL dilution in assay DMEM by means of a CASY cell counter device using a 60um capillary. 6 uL of the mixture were dispensed per well (about 1 * 10^3 host-cells and 1 * 10^3 parasites) with a Multidrop Combi dispenser. […] In all wells, the percentage of DMSO never exceeded 0.5%. Plates incubated for four days at 37C, 5% CO2. The substrate used for the assay fluorescence intensity (FLINT) readout was resorufin-beta-D-galactopiranoside (Sigma-Aldrich) at 5uM per well. It was diluted in PBS supplemented with the soft detergent Igepal (Fluka).; type: functional, organism-based, Mus musculus; settings: Tulahuen, NIH3T3
Leishmania donovani [5] = assay: GSK_TCAKS: pIC50 Leishmania donovani Imaging: Infected Macrophages. Assay plates (384-well) were prepared by adding 250nL of compound to each well. For single shot assay, the final compound concentration was 5 uM. […] Automated image analysis was performed with a script developed on Acapella High Content Imaging and Analysis Software (PerkinElmer). Output: Percent of infected macrophage cells were reported for each well.; type: functional, organism-based, Homo sapiens; settings: THP-1
Trypanosoma cruzi [6] = assay: as §1, with “Trypanosoma cruzi” for “H2C9”, “Amastigotes/Cell.” for “H9c2 Host Cardiomyocytes.”, “number” for “Number”, “amastigotes per cell as infection level measurement.” for “H9c2 Host Cardiomyocytes nuclei to determine drug-related cytotoxicity.”; type: functional, organism-based, Rattus norvegicus; settings: H9c2, 4 h
Leishmania donovani [7] = assay: GSK_TCAKS: pIC50 Leishmania donovani Imaging: THP-1 Host Macrophages. Assay plates (384-well) were prepared by adding 250nL of compound to each well. For single shot assay, the final compound concentration was 5 uM. […] Automated image analysis was performed with a script developed on Acapella High Content Imaging and Analysis Software (PerkinElmer). Output: THP-1 cell count were reported for each well.; type: functional, organism-based, Homo sapiens
Leishmania donovani [8] = assay: GSK_TCAKS: pIC50 Leishmania donovani viability assay using fluorescence intensity. Assay plates (1536-well) were prepared by adding 30nL per well of compound. For single shot assay, the final compound concentration was 5uM. […] Briefly, eGFP LdBOB axenic amastigotes were harvested, fixed and counted in a CASY cell counter (Roche-Applied Science). A final concentration of 1.5 * 10^5 cells per well were prepared in amastigote media containing 500 U/mL penicillin/streptomycin (Invitrogen) and 6uL was dispensed to each experimental well using a Multidrop Combi dispenser (Thermo Scientific). 6uL of assay media was dispensed to control columns used as reference for 100% compound response. Following incubation for 72 h at 37C, 5% CO2, 2 uL of resazurin was added to each well at a final concentration of 0.5 mM in phosphate buffered saline (PBS) with IGEPAL (Sigma-Aldrich), 0.05% (v/v).; type: functional, organism-based
[9] = GSK_TCAKS: pIC50 HepG2 human cell line viability assay using luminiscence. […] Seeding density was checked to ensure that new mono-layers were not more than 50% confluent at the time of harvesting. Cell suspension was added to 500 mL of the same medium at a final density of 1.2 * 10^5 cells/mL. This cell suspension was dispensed (25 uL, 3000 cells per well) into 384-well clear-bottom plates using a Multidrop Combi dispenser. Prior to addition of the cell suspension, the screening compounds (250 nL) were pre-dispensed into the plates with an Echo liquid handler. Plates were incubated for 48 h at 37C, 5% CO2. After incubation, plates equilibrated at room temperature for 30 min before proceeding to develop the luminescent signal. The signal developer, CellTiter-Glo Reagent, was allowed to equilibrate at room temperature for 30 min and added to the plates (25uL per well) using a Multidrop Combi dispenser. Plates were left for 10 min at room temperature for stabilization and then read using a ViewLux.; type: toxicity, cell-based
Leishmania donovani [10] = assay: GSK_TCAKS: pIC50 Leishmania donovani Imaging: Amastigotes/Macrophages. Assay plates (384-well) were prepared by adding 250nL of compound to each well. For single shot assay, the final compound concentration was 5 uM. […] Automated image analysis was performed with a script developed on Acapella High Content Imaging and Analysis Software (PerkinElmer). Output: Average number of amastigotes per macrophage cell were reported for each well.; type: functional, organism-based, Homo sapiens; settings: THP-1
Trypanosoma cruzi [11] = assay: as §1, with “Trypanosoma cruzi” for “H2C9”, “Infected Cells.” for “H9c2 Host Cardiomyocytes.”, “percentage” for “Number”, “infected cells per well as a second infection marker.” for “H9c2 Host Cardiomyocytes nuclei to determine drug-related cytotoxicity.”; type: functional, organism-based, Rattus norvegicus; settings: H9c2, 4 h
NIH3T3 = assay: GSK_TCAKS: pIC50 NIH 3T3 cell line viability assay using luminiscence. Tissue culture surface treated assay plates (1536-well) were used. […] The 100% cells survival control was determined exposing the host-cells to a 0.5% DMSO concentration, whereas the 100% toxicity control was achieved by seeding the cells in presence of Amphotericin B at 50uM. Plates were incubated for four days at 37C, 5% CO2. The assay readout was developed by addition of 5uL of CellTiter-Glo Reagent following the manufacturer's instructions. Luminiscence was measured using a ViewLux.; type: functional, cell-based; settings: Mus musculus, NIH3T3, 96 h
[12] = tested on: Trypanosoma brucei brucei; assay: GSK_TCAKS: pIC50 Trypanosoma brucei viability assay using luminiscence. Assay plates (1536-well) were prepared. T. brucei cultures were harvested and counted in a CASY cell counter. A parasite suspension was prepared at a final concentration of 5 * 10^4 cells/mL in complete HMI9 medium and 6uL was dispensed to all wells containing compounds using a Multidrop Combi dispenser. 6uL of HMI9 media with 0.4% DMSO were dispensed to control columns. Plates were incubated for 24 h at 37C, 5% CO2 then tempered for 10 min at room temperature. ATP content was quantified by adding 4 uL of CellTiter-Glo Reagent (Promega) according to the manufacturer's instructions. Luminescence was measured using a ViewLux.; type: functional, organism-based; settings: Lister 427, CASY

Chain of Sterol 14-alpha demethylase (Q7Z1V1 whole entry): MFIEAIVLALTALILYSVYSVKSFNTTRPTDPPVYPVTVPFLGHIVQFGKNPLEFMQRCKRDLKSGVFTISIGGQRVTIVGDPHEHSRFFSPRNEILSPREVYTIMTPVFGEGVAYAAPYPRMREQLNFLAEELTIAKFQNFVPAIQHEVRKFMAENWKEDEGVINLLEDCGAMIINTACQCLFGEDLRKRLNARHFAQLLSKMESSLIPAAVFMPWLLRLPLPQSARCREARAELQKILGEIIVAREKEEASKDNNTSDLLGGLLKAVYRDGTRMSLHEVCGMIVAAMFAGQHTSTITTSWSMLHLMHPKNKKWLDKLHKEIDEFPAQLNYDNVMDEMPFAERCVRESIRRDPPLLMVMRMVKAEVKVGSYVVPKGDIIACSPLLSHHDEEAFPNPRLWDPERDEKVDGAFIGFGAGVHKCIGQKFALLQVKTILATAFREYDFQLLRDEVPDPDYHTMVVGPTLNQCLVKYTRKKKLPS

Structure (SMILES)	pIC50 [1]	pIC50 [2]	pIC50 (Trypanosoma cruzi [3])	pIC50 (Trypanosoma cruzi [4])	pIC50 (Leishmania donovani [5])	pIC50 (Trypanosoma cruzi [6])	pIC50 (Leishmania donovani [7])	pIC50 (Leishmania donovani [8])	IC50 at 48 h [9] [µM]	pIC50 (Leishmania donovani [10])	pIC50 (Trypanosoma cruzi [11])	pIC50 (NIH3T3)	pIC50 [12]
Cc1cc(C)nc(N2CCC(N(Cc3cccnc3)C(=O)c3cccc(C#N)c3)CC2)n1	6.90	< 4.40	< 4.30	6.50	< 4.30	6.40	< 4.30	5.30	> 100	< 4.30	6.50	5.10	< 4.40
CCN(CC)S(=O)(=O)c1ccc(C(=O)Nc2cc(C)nn2-c2nc(C)c(C)c(=O)[nH]2)cc1	< 4.00	6.50	< 4.30	6.20	< 4.30	6.50	5.50	6.30	> 100	< 4.30	5.80	< 4.30	6.50
COc1ccc(C(C)(C)C)cc1S(=O)(=O)n1ccnc1	8.10	4.40	< 4.30	6.85	< 4.30	6.70	< 4.30	4.40	> 100	4.60	6.70	< 4.30	< 4.40
CCCn1c(NC(=O)Cc2ccc(Cl)cc2)nc2ccccc21	< 4.00	5.70	< 4.30	6.20	5.30	5.90	< 4.30	4.40	> 100	5.50	5.70	< 4.30	5.50
O=C(Nc1nc(-c2ccc(S(=O)(=O)N3CCOCC3)cc2)cs1)c1ccc([N+](=O)[O-])cc1	< 4.00	5.40	< 4.30	6.00	< 4.30	6.30	5.40	< 4.30	> 100	5.60	5.80	4.60	5.00
Cc1ccc2sc(NC(=O)Cn3cnc([N+](=O)[O-])n3)nc2c1	< 4.00	4.60	< 4.30	5.90	< 4.30	6.30	< 4.30	< 4.30	> 100	< 4.30	5.40	4.30	< 4.40
CCC(=O)Nc1ccc(C(=O)Nc2ccccc2-c2ccccc2)cc1	< 4.00	4.70	< 4.30	6.30	4.70	6.60	4.80	5.00	> 100	4.60	6.30	< 4.30	4.60
CCN(CC)S(=O)(=O)c1ccc(Cn2nc(C(=O)Nc3ccncn3)c3ccccc32)cc1	6.80	4.50	4.60	6.50	< 4.30	6.40	< 4.30	< 4.30	> 100	< 4.30	6.40	4.40	< 4.40
Cc1cccnc1CN1CCN(CCCOc2ccc(-c3ccc(C(N)=O)cc3)cc2)CC1	< 4.00	5.00	< 4.30	6.20	4.50	6.40	4.90	< 4.30	> 100	5.00	4.70	5.20	< 4.40
CC(C(=O)Nc1ccccc1F)N(C)CC(=O)Nc1cccc2ccccc12 (stereo not given)	4.80	4.60	< 4.30	6.40	< 4.30	6.50	< 4.30	4.30	> 100	< 4.30	6.30	4.90	< 4.40
